Source: PubChem BioAssay AID330 (DTP/NCI, 2004)
Several values for one entry are separate records, joined by “and”; a condition that tells them apart may be missing. Identical values can stand only once. Inconclusive results and toxic doses are left out. How the source made its calls: active means survival T/C of 150% or more; inactive means T/C below 125% in these data.

Test system: P388 leukemia ip, CD2F1 mice, survival T/C
Assay: NCI In Vivo Anticancer Drug Screen. Data for tumor model P388 Leukemia (intraperitoneal) in CD2F1 (CDF1) mice
Details: endpoint: median survival time, higher = longer survival
Procedure, shortened: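 Mice carrying the transplanted tumor received test compound or vehicle. Survival was recorded in each group, and the value is the treated-group measurement divided by that of the vehicle-treated control group.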

[1] = dose: 50.0 mg/kg/injection, schedule: Q01DX005 (ip), vehicle: saline
[2] = dose: 100.0 mg/kg/injection, schedule: Q01DX005 (ip), vehicle: saline
[3] = dose: 50.0 mg/kg/injection, schedule: Q01DX005 (ip), vehicle: Klucel (hydroxypropylcellulose) (HPC)
[4] = dose: 100.0 mg/kg/injection, schedule: Q01DX005 (ip), vehicle: Klucel (hydroxypropylcellulose) (HPC)
[5] = dose: 200.0 mg/kg/injection, schedule: Q01DX005 (ip), vehicle: Klucel (hydroxypropylcellulose) (HPC)
[6] = dose: 100.0 mg/kg/injection, schedule: Q01DX009 (ip), vehicle: saline with Tween-80
[7] = dose: 200.0 mg/kg/injection, schedule: Q01DX009 (ip), vehicle: saline with Tween-80
[8] = dose: 50.0 mg/kg/injection, schedule: Q01DX009 (ip), vehicle: saline with Tween-80
[9] = dose: 50.0 mg/kg/injection, schedule: Q01DX005 (ip), vehicle: saline with Tween-80
[10] = dose: 100.0 mg/kg/injection, schedule: Q01DX005 (ip), vehicle: saline with Tween-80
[11] = dose: 200.0 mg/kg/injection, schedule: Q01DX005 (ip), vehicle: saline with Tween-80

Measured: T/C

C=C1c2c(O)c(C)c(O)c(C(C)=O)c2OC12CC(=O)C(C(=O)O)=C2C (stereo not drawn)
inactive: dose: 12.5 mg/kg/injection, schedule: Q01DX009 (ip), vehicle: gum acacia 105 % of control and 112 % of control | dose: 25.0 mg/kg/injection, schedule: Q01DX009 (ip), vehicle: gum acacia 108 % of control and 109 % of control | dose: 50.0 mg/kg/injection, schedule: Q01DX009 (ip), vehicle: gum acacia 108 % of control | dose: 100.0 mg/kg/injection, schedule: Q01DX009 (ip), vehicle: gum acacia 108 % of control and 110 % of control | dose: 200.0 mg/kg/injection, schedule: Q01DX009 (ip), vehicle: gum acacia 108 % of control and 110 % of control

COC(=O)c1cc2[n+](cc1C(=O)OC)CCc1cc3c(cc1-2)OCO3
inactive: dose: 0.63 mg/kg/injection, schedule: Q01DX009 (ip), vehicle: water 99 % of control | dose: 1.25 mg/kg/injection, schedule: Q01DX009 (ip), vehicle: water 97 % of control | dose: 2.5 mg/kg/injection, schedule: Q01DX009 (ip), vehicle: water 97 % of control | dose: 5.0 mg/kg/injection, schedule: Q01DX009 (ip), vehicle: water 106 % of control | dose: 10.0 mg/kg/injection, schedule: Q01DX009 (ip), vehicle: water 99 % of control | dose: 20.0 mg/kg/injection, schedule: Q01DX009 (ip), vehicle: water 92 % of control

CC1CCC/C=C/C2CC(O)CC2C(O)/C=C\C(=O)O1 (stereo not drawn)
inactive: dose: 8.75 mg/kg/injection, schedule: Q01DX005 (ip), vehicle: Klucel (hydroxypropylcellulose) (HPC) 101 % of control | dose: 17.5 mg/kg/injection, schedule: Q01DX005 (ip), vehicle: Klucel (hydroxypropylcellulose) (HPC) 97 % of control | dose: 35.0 mg/kg/injection, schedule: Q01DX005 (ip), vehicle: Klucel (hydroxypropylcellulose) (HPC) 93 % of control | dose: 70.0 mg/kg/injection, schedule: Q01DX005 (ip), vehicle: Klucel (hydroxypropylcellulose) (HPC) 100 % of control

Cc1ccc(C)c2c(Nc3ccc4c(c3)OCO4)c(C(=O)O)cnc12
inactive: dose: 60.0 mg/kg/injection, schedule: Q01DX005 (ip), vehicle: Klucel + Tween-80 95 % of control | dose: 120.0 mg/kg/injection, schedule: Q01DX005 (ip), vehicle: Klucel + Tween-80 93 % of control

Nc1nc(N)c2cc(NCc3ccccc3Cl)ccc2n1
inactive: dose: 6.25 mg/kg/injection, schedule: Q01DX001 (ip), vehicle: saline with Tween-80 100 % of control | dose: 12.5 mg/kg/injection, schedule: Q01DX001 (ip), vehicle: saline with Tween-80 112 % of control | dose: 16.5 mg/kg/injection, schedule: Q01DX009 (ip), vehicle: saline with Tween-80 104 % of control | dose: 25.0 mg/kg/injection, schedule: Q01DX001 (ip), vehicle: saline with Tween-80 104 % of control

CC(C)C(N)C(=O)NC(C(=O)O)C(C)C (stereo not drawn)
inactive: dose: 6.25 mg/kg/injection, schedule: Q01DX005 (ip), vehicle: saline 95 % of control | dose: 12.5 mg/kg/injection, schedule: Q01DX005 (ip), vehicle: saline 95 % of control | dose: 25.0 mg/kg/injection, schedule: Q01DX005 (ip), vehicle: saline 96 % of control | [1] 98 % of control | [2] 88 % of control and 104 % of control | dose: 200.0 mg/kg/injection, schedule: Q01DX005 (ip), vehicle: saline 100 % of control

COC(=O)CCSC(=O)NS(=O)(=O)c1ccc(C)cc1
inactive: [3] 104 % of control | [4] 102 % of control | [5] 104 % of control

O=C(NCCc1nc(-c2nc(C(=O)O)cs2)cs1)c1ccccc1
inactive: [6] 100 % of control | [7] 100 % of control | dose: 400.0 mg/kg/injection, schedule: Q01DX009 (ip), vehicle: saline with Tween-80 90 % of control

O=C(CSc1ncnc2nc[nH]c12)c1ccccc1
inactive: [8] 90 % of control | [6] 100 % of control | [7] 105 % of control

CC(O)CN(Cc1c(O)ccc2ccccc12)CC(C)O (stereo not drawn)
inactive: [9] 108 % of control | [10] 110 % of control | [11] 99 % of control

O=[N+]([O-])/C=C/c1c[nH]c2c1ccc1ccccc12
inactive: [10] 86 % of control | [11] 94 % of control

COC(=O)C(O)(C(=O)OC)C1=C(N)C(=O)c2ccccc2C1=O
inactive: [1] 111 % of control | [2] 123 % of control

O=Cc1ccc(N=Nc2c(S(=O)(=O)O)cc3cc(S(=O)(=O)O)cc(O)c3c2O)cc1
inactive: [8] 90 % of control | [6] 90 % of control | [7] 100 % of control

COP(=O)(O)OC.[Th]
inactive: [8] 118 % of control | [6] 88 % of control | [7] 90 % of control

Cc1nc2c(cnn2C)c(=O)n1-c1ccccc1Cl
inactive: [3] 103 % of control | [4] 95 % of control | [5] 98 % of control

COC1C(O)=C2C(=O)OC(C)(O)/C=C/C=C\C=C/C=C/C(c3ccccc3)NC(=O)/C=C/C=C/C=C/C=C/C2(C)C1O (stereo not drawn)
inactive: dose: 12.5 mg/kg/injection, schedule: Q01DX009 (ip), vehicle: Klucel (hydroxypropylcellulose) (HPC) 103 % of control and 86 % of control

CCC(=O)OC1CC2(C)C(=CC1=O)CCC1C2CCC2(C)C(OC(=O)CC)CCC12 (stereo not drawn)
inactive: [8] 100 % of control | [6] 95 % of control | dose: 100.0 mg/kg/injection, schedule: Q04DX003 (ip), vehicle: saline with Tween-80 100 % of control | [7] 100 % of control | dose: 200.0 mg/kg/injection, schedule: Q04DX003 (ip), vehicle: saline with Tween-80 100 % of control

CC[C@H]1C[C@H](Cc2ccccc2)CC[C@H]1N1CCCC1
inactive: [9] 101 % of control | [10] 104 % of control

CC(=O)c1c(-c2nc(=S)[nH]c(C)c2C(C)=O)nc(=S)[nH]c1C
inactive: dose: 60.0 mg/kg/injection, schedule: Q01DX005 (ip), vehicle: Klucel (hydroxypropylcellulose) (HPC) 106 % of control | dose: 120.0 mg/kg/injection, schedule: Q01DX005 (ip), vehicle: Klucel (hydroxypropylcellulose) (HPC) 100 % of control | dose: 240.0 mg/kg/injection, schedule: Q01DX005 (ip), vehicle: Klucel (hydroxypropylcellulose) (HPC) 90 % of control

CC1CC(N=Cc2ccc3c(c2)OCO3)CC(C)(C)C1 (stereo not drawn)
inactive: [9] 103 % of control | [10] 96 % of control | [11] 97 % of control

CC1(C)OCC(C2OC3OC(C)(C)OC3C2N=O)O1 (stereo not drawn)
inactive: dose: 94.5 mg/kg/injection, schedule: Q04DX002 (ip), vehicle: Klucel (hydroxypropylcellulose) (HPC) 103 % of control | dose: 189.0 mg/kg/injection, schedule: Q04DX002 (ip), vehicle: Klucel (hydroxypropylcellulose) (HPC) 96 % of control | dose: 378.0 mg/kg/injection, schedule: Q04DX002 (ip), vehicle: Klucel (hydroxypropylcellulose) (HPC) 90 % of control

Cc1ccc(C(O)(c2ccc(C)cc2)C(C)(C)O)cc1
inactive: dose: 60.0 mg/kg/injection, schedule: Q01DX005 (ip), vehicle: saline with Tween-80 98 % of control | dose: 120.0 mg/kg/injection, schedule: Q01DX005 (ip), vehicle: saline with Tween-80 100 % of control | dose: 240.0 mg/kg/injection, schedule: Q01DX005 (ip), vehicle: saline with Tween-80 103 % of control

CCOC(=O)/C=C1/Nc2ccc([N+](=O)[O-])cc2NC1=O (tested in a mixture with another compound)
inactive: dose: 50.0 mg/kg/injection, schedule: Q01DX009 (ip), vehicle: distilled water + Tween-80 + alcohol 86 % of control | dose: 100.0 mg/kg/injection, schedule: Q01DX009 (ip), vehicle: distilled water + Tween-80 + alcohol 94 % of control | dose: 200.0 mg/kg/injection, schedule: Q01DX009 (ip), vehicle: distilled water + Tween-80 + alcohol 103 % of control

c1ccc(C2(N3CCOCC3)CSC2)cc1
inactive: dose: 100.0 mg/kg/injection, schedule: Q04DX002 (ip), vehicle: saline with Tween-80 95 % of control | dose: 200.0 mg/kg/injection, schedule: Q04DX002 (ip), vehicle: saline with Tween-80 98 % of control | dose: 400.0 mg/kg/injection, schedule: Q04DX002 (ip), vehicle: saline with Tween-80 98 % of control
